Values joined by “and” are separate entries in the source; they are usually repeats but may differ in a detail not shown here. Identical values can stand only once. Like-named read-outs stand apart in the source and are kept apart here. Marks after values point to notes of the source that are not given here. No end group written: not given here.
Assays:
[1] = system: Kunming mice; type: in vivo
[2] = system: Female Kunming mice; type: in vivo
[3] = system: male BALB/c mice; assay: cancer-induced pain (CIP) model, thermosensitive test; type: in vivo; conditions: heat radiation stimulation
Procedure: Influence of Analgesic Polypeptides on Neuralgia in a Cancer-Induced Pain (CIP) Model
A number of male BALB/c mice each weighing 25-30 g were used.
Von Fery monofilament; a microsyringe, 5 mg/mL solutions of polypeptides I, II and II I; normal saline.
BALB/c mice were taken, and the right sciatic nerve was exposed; ascites containing 5×10^4 Meth A sarcoma cells were injected into the proximal nerve near the sciatic nerve trochanter far from the tendon branch of the posterior biceps, the wound was closed, and the same volume of normal saline was injected into the left side by performing a sham operation.
1.3.1 Thermosensitive Test
On the 4th, 7th, 10th and 14th days after inoculation, the latency of foot lifting caused by heat radiation stimulation to animals was observed, and the heat radiation intensity was adjusted to cause the latency of foot lifting of normal mice to be (10±2) s.
All data was expressed as M±SD and subjected to one-way ANOVA.

[4] = system: Kunming mice; conditions: mouse, in vivo
[5] = system: Female Kunming mice
[6] = system: SD rats; assay: pain threshold of trigeminal nerve (trigeminal neuralgia model); type: in vivo; conditions: for highest pain threshold on the operative side / pain threshold on the opposite side: 3 h after injection; for Pain threshold: intraperitoneal
[7] = system: Female Kunming mice; remark: listed apart in the source
[8] = system: Female Kunming mice; remark: listed apart in the source
[9] = 50 μg/kg, injected subcutaneously
[10] = 100 μg/kg, injected subcutaneously

In the case of “KCSTPPDAVLYC (cysteine pairing not given here) [Polypeptide III, one pair of disulfide bonds formed between the two cysteines]”, the “Pain threshold (tail flick)” value ([1]; 0 min) is reported as 2.31 ± 0.22 s, the “Pain threshold (tail flick)” value ([1]; 15 min) is reported as 2.22 ± 0.21^∧∧ s and the “Pain threshold (tail flick)” value ([1]; 30 min) is reported as 2.32 ± 0.12 s. The “Pain threshold (tail flick)” value ([1]; 45 min) was 4.12 ± 0.12^∧ s, the “Pain threshold (tail flick)” value ([1]; 60 min) was 2.12 ± 0.21 s and the “Pain threshold (tail flick)” value ([1]; 75 min) was 2.14 ± 0.12 s. The “Pain threshold (tail flick)” value ([1]; 90 min) was 3.12 ± 0.14 s, the “difference from the normal saline group during a time period (**P<0.01)” value ([1]; mouse, in vivo) was “significantly different from the normal saline group” and the Pain threshold ([2]; 0 min) was 29.22 ± 0.11 s. The Pain threshold ([2]; mouse, in vivo, ip) was 31.22 ± 0.42^∧∧ s and 33.12 ± 0.32*^∧ s and 27.23 ± 0.42^∧ s and 21.49 ± 0.45^∧ s and 32.14 ± 0.42 s and 21.43 ± 0.24 s, the “heat thresholds of mice compared with the normal saline negative control group” value ([2]; mouse, in vivo, ip) was “effectively increase the heat thresholds of mice” and the “Latency of foot lifting before administration” value ([3]; before administration) was 9.77 ± 1.21. The “Latency (D) of foot lifting after administration” value (from here on “Latency (D) of foot lifting”) ([3]; day 4) was 9.45 ± 1.02, the “Latency (D) of foot lifting” value ([3]; day 7) was 8.88 ± 0.86 and the “Latency (D) of foot lifting” value ([3]; day 10) was 8.26 ± 1.21. The “Latency (D) of foot lifting” value ([3]; day 14) was 6.78 ± 1.22, the “analgesic effects in formalin-induced pain experiments” value [4] was “good analgesic effects” and the “cumulative foot licking time, Phase I” value [4] was 47.19 ± 10.21*^. The “cumulative foot licking time, Phase II” value [4] was 41.23 ± 13.21, the “Duration of the immobility of mice in tail suspension tests” value (“Duration of the immobility of mice” below) ([5]; 1 h) was 20.12 ± 1.28 s and the “Duration of the immobility of mice” value ([5]; 24 h) was 19.23 ± 1.84 s. For the same sequence, the “Duration of the immobility of mice” value ([5]; Time 0) was 19.28 ± 1.02 s, the “data of tail suspension test compared with the normal saline group” value ([5]; mouse, in vivo, ip) was “no significant difference” and the “toxic side effects compared with the conotoxin (tail suspension)” value ([5]; mouse, in vivo, ip) was “lower toxic side effects”. The animal reaction thresholds ([6]; 50 μg/kg and 100 μg/kg, injected subcutaneously) was “significantly increased”, the “time the pain thresholds lasted” value [6, 9] was 1 h and the “highest pain threshold on the operative side” value [6, 9] was 2.3 ± 0.5 g. The “pain threshold on the opposite side” value [6, 9] was 1.2 ± 0.2 g, the “time the effect on the operative side lasted” value [6, 10] was “about 8 h” and the “highest pain threshold on the operative side” value [6, 10] was 7.4 ± 0.9 g. The “pain threshold on the opposite side” value [6, 10] was 3.2 ± 1.3 g, the pain threshold change ([6]; 300 μg/kg, subcutaneously) was “not significantly increased” and the Pain threshold ([6]; Dose 50 (μg/kg), 0 h) was 25.98 ± 0.11 s. The Pain threshold ([6]; Dose 50 (μg/kg), 1 h) was 26.25 ± 0.46 s, the Pain threshold ([6]; Dose 50 (μg/kg), 2 h) was 26.69 ± 0.62 s and the Pain threshold ([6]; Dose 50 (μg/kg), 3 h) was 26.91 ± 0.49 s. The Pain threshold ([6]; Dose 50 (μg/kg), 4 h) was 27.91 ± 0.26 s, the Pain threshold ([6]; Dose 50 (μg/kg), 5 h) was 26.91 ± 0.61 s and the Pain threshold ([6]; Dose 100 (μg/kg), 0 h) was 26.56 ± 0.23 s. The Pain threshold ([6]; Dose 100 (μg/kg), 1 h) was 27.65 ± 0.61 s, the Pain threshold ([6]; Dose 100 (μg/kg), 2 h) was 28.16 ± 0.59 s and the Pain threshold ([6]; Dose 100 (μg/kg), 3 h) was 27.19 ± 0.91 s. It also gave a Pain threshold ([6]; Dose 100 (μg/kg), 4 h) of 28.16 ± 0.61 s, a Pain threshold ([6]; Dose 100 (μg/kg), 5 h) of 26.16 ± 0.91 s and a Pain threshold ([6]; Dose 300 (μg/kg), 0 h) of 26.15 ± 0.65 s. It also gave a Pain threshold ([6]; Dose 300 (μg/kg), 1 h) of 31.95 ± 0.56 s, a Pain threshold ([6]; Dose 300 (μg/kg), 2 h) of 30.21 ± 0.64 s and a Pain threshold ([6]; Dose 300 (μg/kg), 3 h) of 29.91 ± 0.61 s. For the same sequence, the Pain threshold ([6]; Dose 300 (μg/kg), 4 h) was 28.85 ± 0.41 s, the Pain threshold ([6]; Dose 300 (μg/kg), 5 h) was 27.92 ± 0.61 s and the “Movement duration of mice in forced swimming tests” value (“Movement duration of mice” below) ([7]; 1 h) was 18.57 ± 1.21^ s. For the same sequence, the “Movement duration of mice” value ([7]; 24 h) was 17.13 ± 1.23 s, the “Movement duration of mice” value ([7]; Time 0) was 21.40 ± 1.38 s and the “toxic side effects compared with the conotoxin (forced swimming)” value ([7]; mouse, in vivo, ip) was “lower toxic side effects”. For the same sequence, the “Movement distances of mice in open field tests” value ([8]; 1 h) was 18.27 ± 1.22^, the “Movement distances of mice in the center area in open field tests” value ([8]; 1 h) was 18.57 ± 1.22^ and the “Movement distances of mice in the peripheral area in open field tests” value ([8]; 1 h) was 19.47 ± 1.32^. For the same sequence, the “Number of entrances to the center area in open field tests” value (shortened to “Number of entrances to the center area”) ([8]; 1 h) was 18.47 ± 0.32^, the “Number of entrances to the peripheral area in open field tests” value ([8]; 1 h) was 18.57 ± 1.42^ and the “Residence time in the center area in open field tests” value (“Residence time in the center area” below) ([8]; 1 h) was 18.37 ± 1.22^ s. For the same sequence, the “Residence time in the peripheral area in open field tests” value (“Residence time in the peripheral area” for short) ([8]; 1 h) was 14.27 ± 1.34^ s, the “Movement distances of mice in open field tests” value ([8]; 24 h) was 19.13 ± 2.38 m and the “Movement distances of mice in the center area in open field tests” value ([8]; 24 h) was 18.13 ±1.38 m. The “Movement distances of mice in the peripheral area in open field tests” value ([8]; 24 h) was 19.03 ± 2.48 m, the “Number of entrances to the center area” value ([8]; 24 h) was 18.23 ± 1.48 and the “Number of entrances to the peripheral area in open field tests” value ([8]; 24 h) was 17.13 ± 2.18. The “Residence time in the center area” value ([8]; 24 h) was 18.13 ± 1.38 s, the “Residence time in the peripheral area” value ([8]; 24 h) was 18.13 ± 1.45 s and the “Movement distances of mice in open field tests” value ([8]; Time 0) was 21.28 ± 1.28 m. The “Movement distances of mice in the center area in open field tests” value ([8]; Time 0) was 21.88 ±1.18 m, the “Movement distances of mice in the peripheral area in open field tests” value ([8]; Time 0) was 20.98 ± 1.28 m and the “Number of entrances to the center area” value ([8]; Time 0) was 21.28 ± 1.28. For the same sequence, the “Number of entrances to the peripheral area in open field tests” value ([8]; Time 0) was 21.28 ± 1.38, the “Residence time in the center area” value ([8]; Time 0) was 21.78 ± 1.17 s and the “Residence time in the peripheral area” value ([8]; Time 0) was 21.88 ± 1.38 s. The “side effects compared with conotoxin (open field)” value ([8]; mouse, in vivo, ip) was “lower side effects” and the “various indexes in open field experiments compared with the normal saline group” value ([8]; mouse, in vivo, ip) was “no significant difference”.

From patent US11192921B2 (priority 2017, dated 2021)
